Experimental data: BindingDB's records for doi:10.7270/Q29K48M5 (University of Pittsburgh, 2007)

What follows are compounds tested against T1, M-phase inducer phosphatase 2 (Homo sapiens, UniProt P30305) (assay: inhibition of Cdc25B phosphatase activity – biochemical, 25 mM DTT, probe assessment, dose response (AID 649)).
T1 sequence (P30305 whole entry): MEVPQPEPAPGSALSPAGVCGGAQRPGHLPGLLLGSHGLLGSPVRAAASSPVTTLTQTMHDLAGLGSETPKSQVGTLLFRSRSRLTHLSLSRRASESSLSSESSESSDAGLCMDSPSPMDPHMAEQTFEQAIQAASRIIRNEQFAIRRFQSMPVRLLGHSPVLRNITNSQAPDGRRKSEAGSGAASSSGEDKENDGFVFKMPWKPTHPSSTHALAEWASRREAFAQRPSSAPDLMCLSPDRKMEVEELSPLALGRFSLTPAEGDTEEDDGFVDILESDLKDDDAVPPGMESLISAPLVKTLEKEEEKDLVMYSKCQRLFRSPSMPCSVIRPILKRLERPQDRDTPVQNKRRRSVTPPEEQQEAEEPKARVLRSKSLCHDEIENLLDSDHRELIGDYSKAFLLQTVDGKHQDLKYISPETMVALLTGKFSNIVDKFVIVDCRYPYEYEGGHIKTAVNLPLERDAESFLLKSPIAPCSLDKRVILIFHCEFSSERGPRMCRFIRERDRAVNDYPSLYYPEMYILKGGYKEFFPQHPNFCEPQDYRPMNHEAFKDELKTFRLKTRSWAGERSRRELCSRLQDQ

Structure (SMILES)	IC50 [µM]
O=C(Nc1ccc2nc(-c3ccco3)c(-c3ccco3)nc2c1)N1CCCCCC1	39.8
Cc1ccc2c(c1C)NC(C(=O)O)C1CC=CC21 (stereo not drawn)	17.7
O=C(O)C1Nc2c(O)cccc2C2C=CCC12 (stereo not drawn)	12.8
Cn1ncnc2c(=O)n(C)c(=O)nc1-2	34.5
[O-]/[N+](=C\c1ccncc1)c1ccccc1	> 50
COc1cccc2c(C)c(C(=O)O)[nH]c12	10.9
O=C1C=Cc2ccccc2C1=O [1,2-dihydronaphthalene-1,2-dione]	> 50
CCn1nc(-c2ccccc2)nc2c(=O)n(C)c(=O)nc1-2 [1-Ethyl-6-methyl-3-phenyl-1H-pyrimido[5,4-e][1,2,4]triazine-5,7-dione]	21.1
[O-]/[N+](=C\c1ccc(OC(F)F)cc1)c1ccccc1 [1-[4-(difluoromethoxy)phenyl]-N-phenylmethanimine oxide]	> 50
CCn1nc(-c2cccs2)nc2c(=O)n(C)c(=O)nc1-2 [1-ethyl-6-methyl-3-thiophen-2-yl-pyrimido[5,4-e][1,2,4]triazine-5,7-dione]	17.2
O=C1Cc2ccccc2C(=O)N1CCc1ccccc1 [2-(2-phenylethyl)-4H-isoquinoline-1,3-dione]	> 50
N#Cc1c(N)sc(=S)c2c1CCN(Cc1ccccc1)C2 [3-Amino-7-benzyl-1-thioxo-5,6,7,8-tetrahydro-1H-thiopyrano[3,4-c]pyridine-4-carbonitrile]	49.3
Cc1ccccc1Nc1cc2ccccc2c(O)n1 [3-[(2-methylphenyl)amino]-2H-isoquinolin-1-one]	42.3
COc1ccc(Br)cc1C=c1sc2nc(-c3ccco3)nn2c1=O [5-[(5-bromanyl-2-methoxy-phenyl)methylidene]-2-(furan-2-yl)-[1,3]thiazolo[3,2-b][1,2,4]triazol-6-one]	14.7
CC(=O)Nc1cc(OC(C)=O)c2nonc2c1OC(C)=O [Acetic acid 7-acetoxy-5-acetylamino-benzo[1,2,5]oxadiazol-4-yl ester]	> 50
c1ccc(CSc2nnc(-c3ccco3)c(-c3ccco3)n2)cc1 [MLS-0029114.0001]	> 50
Cc1ccc2c(c1)C1C=CCC1C(C(=O)O)N2 (stereo not drawn) [MLS-0067149.0001]	11.4
O=C(NC1(O)C(=O)c2ccccc2C1=O)c1ccccc1 [N-(2-hydroxy-1,3-dioxo-2-indenyl)benzamide]	> 50
Nc1cccc2cnccc12 [isoquinolin-5-amine]	> 50

The next lines start with the values.

IC50 [µM]	Structure (SMILES)
> 50	CCOC(=O)C(C(=O)OCC)c1cc(Br)c2noc3c2c1C(=O)c1ccccc1-3 [MLS000038842]
48	Oc1nc(Nc2ccccc2)cc2ccccc12 [MLS000043701]
> 50	O=C1C=Cc2ccccc2/C1=C/NC12CN3CCN(CN(C3)C1)C2 [MLS000071484]
> 50	Cc1c(N=c2c(=O)c3ccccc3c2=O)c(=O)n(-c2ccccc2)n1C [MLS000105950]
> 50	CCOc1ccc2noc3c2c1C(=O)c1ccccc1-3 [MLS000106837]
> 50	COc1ccc2noc3c2c1C(=O)c1ccccc1-3 [MLS000106874]
11.7	COc1cccc2c1NC(C(=O)O)C1CC=CC21 (stereo not drawn) [SMR000009698]
7.42	O=C(OC1CCCCC1)c1ccc2c(c1)C1C=CCC1C(C(=O)O)N2 (stereo not drawn) [SMR000019385]
> 50	N#Cc1c(N2CCCC2)nc(N)c2c(N)nc(N3CCCC3)cc12 [SMR000061605]
